A word on the LD50: it is the dose at which mortality reaches 50%. Low readings indicate greater toxicity, high ones lower toxicity. The ED50 is the midpoint of the dose-response relation.

Data set [1] concerns audiogenic seizures. Put plainly: Audiogenic Seizures, mouse. The format is in vivo. The settings on record: for blocking of tonic convulsions induced by audiogenic seizures: result in words; for ED50: 1 h, po, read-out: ED50 Audiogenic Seizure Mouse. The procedure:
(§1) ^1 Test compounds including reference agents were administered orally
(§2) either as water solutions or as fine suspensions in Tween by gastric
(§3) intubation 60 min prior to the test. There were at least 3 animals per
^3 Audiogenic Seizures - Mice, which were genetically bred for the
susceptability to sound induced seizures (O'Grady Farms) were placed into
the sound attenuated box and exposed to a 120 sec sound stimulus of 85 db
and 10,000 c/sec frequincy. Prevention of tonic extension of hind limbs
was used as a criterion for drug effect.

A short description of data set [2]: in vivo. The following applies: mouse, po, 24 hours observation.
Source text: hours following drug administration.
The subject of data set [3] is tonic convulsions induced by maximal electroshock. Put plainly: Maximal Electroshock Test, mouse. The format is in vivo. The settings on record: for ED50: 1 h, po, read-out: ED50 Maximal Electroshock Mouse; for blocking of tonic convulsions induced by maximal electroshock: result in words, species not given. The procedure:
as §1, §2, §3
(§4) ^2 Maximal Electroshock Test - Animals were subjected to an 80mA shoc
(§5) of 0.5 sec duration by a means of corneal electrodes using the specially
(§6) designed apparatus manufactured by Wahlquist Instrument Co. Prevention of
(§7) tonic extension by hind limbs was used as a criterion for drug effect.
In general terms: In the maximal electroshock model the usual endpoint is tonic extension of the hind limbs.

For data set [4], the system named is pentylenetetrazole lethality. Put plainly: Pentylenetetrazol Standard Dose, mouse. In kind it is in vivo. The following applies: for effectiveness against pentylenetetrazole: result in words, species not given; for ED50: 1 h, mouse, po, pentylenetetrazol 125 mg/kg ip, prevention of lethality (footnote 5). An excerpt:
(§8) There were at least 3 animals per
(§9) Prevention of lethality was used as criterion for […]

For data set [5], the system named is pentylenetetrazole lethality. The experiment in a line: Pentylenetetrazol Standard Dose, rat. In kind it is in vivo. The following applies: 1 h, po, pentylenetetrazol 125 mg/kg ip, prevention of lethality (footnote 5).
Source text: as §8, §9

Data set [6] deals with tonic convulsions induced by maximal electroshock. Put plainly: Maximal Electroshock Test, rat. The format is in vivo. The following applies: 1 h, po, read-out: ED50 Maximal Electroshock Rat. The procedure:
as §1, §2, §3, §4, §5, §6, §7

The test system of data set [7] is pentylenetetrazole convulsions. The experiment in a line: Pentylenetetrazol Infusion (Mouse). The settings on record: for ED50: 1 h, po, read-out: ED50 Pentylenetetrazole Mouse (infusion); for antagonism of all the excitatory signs induced by pentylenetetrazol: clonic and tonic convulsions and lethality, result in words. The format is in vivo.
Source text: as §8
^4 Pentylenetetrazol Infusion (Mouse) - The procedure originally
described by Orloff, M. H. et al., Proc. Soc. Exp. Biol. 70:254 (1949) an
adopted by our laboratories was used.

Data set [8] in a line: Effect on aortic blood pressure in the ouabain-arrhythmia anesthetized dog. The following applies: iv; for effect on aortic blood pressure: result in words. In kind it is in vivo. The procedure: (§10) Anesthetized dogs were used for the production of ouabain-induced ventricular arrhythmias. The arrhythmia consisted of a nodal or ventricular tachycardia. The procedure used to establish the arrhythmia as well as the criteria employed to determine anti-arrhythmic activity generally was that employed by Lucchesi et al. ^1
Anti-arrhythmic activity of the compounds was determined by rapid intravenous injection and compared to lidocaine, disopyramide and aprindine The average prolonged reversion doses are shown below: […]

Data set [9] concerns ouabain-induced ventricular arrhythmias. Put plainly: Reversion of ouabain-induced arrhythmia in anesthetized dogs. The format is in vivo, dog. The following applies: for ED100: Canis lupus familiaris, 0.5 h, read-out: I. V. Reverting Dose. The procedure: The compounds were also tested in dogs for their reversion activity in ouabain-induced arrhythmia.
as §10
1. Lucchesi, B. L. and H. F. Hardman: The influence of dichloroisoproterenol (DCI) and related compounds upon ouabain and acetylstrophanthidin induced cardiac arrhythmias.

Setting [10] is: mouse, 60 min prior to test, prevention of tonic extension of hind limbs.
The mark [11] stands for this setting: rat, 60 min prior to test, prevention of tonic extension of hind limbs.
Where [12] appears, read: mouse, pentylenetetrazol infusion (footnote 4).
The mark [13] stands for this setting: anesthetized dog, rapid intravenous injection, IV ED100, normal sinoatrial rhythm for greater than 30 mins.
Where [14] appears, read: mouse, 60 min prior to test, prevention of tonic extension.

Counter-ions that a name gives are not always drawn. Like-named read-outs stand apart in the source and are kept apart here.

With `NC[C@@H]1Oc2ccc(Cl)cc2[C@H](c2ccccc2)O1` (relative stereo) [BL-3069], the “blocking of tonic convulsions induced by audiogenic seizures” value (“blocking … by audiogenic seizures” for short) in [1] is on record as “effective blocking agents of tonic convulsions”. The compound also returned a median lethal dose (LD50) at 24 h in data set [2] of 300 mg/kg. Moreover, the ED50 in data set [3] (setting [10]) is 25 mg/kg; in data set [5] it was > 40 mg/kg; in data set [6] (setting [11]), > 20 mg/kg; in data set [7] (setting [12]) it was 12 mg/kg. In addition, in data set [3], the “blocking of tonic convulsions induced by maximal electroshock” value (“blocking … by maximal electroshock” below) is “effective blocking agents of tonic convulsions”. The effectiveness against pentylenetetrazole result in [4] is “practically ineffective”.
As to `CNC[C@@H]1Oc2ccc(Cl)cc2[C@@H](c2ccccc2)O1` (relative stereo) [BL-3100], in [8], the “Decrease in mean aortic pressure” value was determined as 50 mmHg. The ED100 in data set [9] (setting [13]) is > 10 mg/kg.
For `CNC(=O)[C@@H]1Oc2ccc(Cl)cc2[C@@H](c2ccccc2)O1` (relative stereo) [BL-3167], the ED100 in data set [9] (setting [13]) was > 10 mg/kg.
Regarding `CNC[C@H]1Oc2ccc(Cl)cc2[C@@H](c2ccccc2)O1.Cl` (relative stereo) [BL-3168, cis-6-Chloro-2-methylaminomethyl-4-phenyl-1,3-benzodioxan hydrochloride], the ED50 in data set [1] (setting [14]) is 2.5 mg/kg; in [3] (setting [10]), 10 mg/kg; in [4] it was > 50 mg/kg; in [5], > 40 mg/kg; in [6] (setting [11]), 15 mg/kg; in data set [7] (setting [12]), 5 mg/kg. Besides, in data set [1], the “blocking … by audiogenic seizures” value was “effective blocking agents of tonic convulsions”. In addition, in [2], the LD50 at 24 h came to 300 mg/kg. For the same compound, in data set [3], the “blocking … by maximal electroshock” value is recorded as “effective blocking agents of tonic convulsions”. Moreover, the “Decrease in mean aortic pressure” value in data set [8] worked out at 20 mmHg. In [4], the effectiveness against pentylenetetrazole result is given as “practically ineffective”. In [9] (setting [13]), the ED100 was > 10 mg/kg.
Regarding `CC(C)NC(=O)[C@@H]1Oc2ccc(Cl)cc2[C@@H](c2ccccc2)O1` (relative stereo) [BL-3374], the ED100 in data set [9] (setting [13]) is > 10 mg/kg.
Same read-out and setting: the same measure for `CC(C)NC[C@@H]1Oc2ccc(Cl)cc2[C@@H](c2ccccc2)O1` (relative stereo) [BL-3379]: > 10 mg/kg.
On to `CC(C)NC[C@@H]1Oc2ccccc2[C@@H](c2ccccc2)O1` (relative stereo) [BL-3394], for which the “effect on aortic blood pressure” value in data set [8] is on record as “gressive fall in aortic”. The ED100 in data set [9] (setting [13]) is ~10 mg/kg.
Turning to `CC(C)NC[C@@H]1Oc2ccc(Cl)cc2[C@H](c2ccccc2)O1` (relative stereo) [BL-3396, cis-6-Chloro-4-phenyl-2-(2-propylaminomethyl)-1,3-benzodioxan hydrochloride], the 50% effective dose (ED50) in data set [1] (setting [14]) is 2.5 mg/kg; in data set [3] (setting [10]), 10 mg/kg; in data set [4] it was > 50 mg/kg; in data set [5] it was > 40 mg/kg; in data set [6] (setting [11]) it was 10 mg/kg; in [7] (setting [12]) it was 3 mg/kg. For the same compound, in [2], the LD50 at 24 h turned out to be 400 mg/kg.
Take `CC(C)NC[C@@H]1Oc2ccccc2[C@H](c2ccccc2)O1` (relative stereo) [BL-3418]: the ED100 in data set [9] (setting [13]) is 3 to 5 mg/kg.
Consider `CC(C)NC[C@H]1Oc2ccc(Cl)cc2[C@H](c2ccccc2F)O1.Cl` (relative stereo) [BL-3681A, trans-6-Chloro-4-(2-fluorophenyl)-2-(2-propylaminomethyl)-1,3-benzodioxan hydrochloride], for which the ED50 in [1] (setting [14]) was 10 mg/kg; in [3] (setting [10]) it was 12 mg/kg; in data set [4], > 50 mg/kg; in [5], > 40 mg/kg; in [6] (setting [11]) it was 15 mg/kg; in [7] (setting [12]) it was 12 mg/kg. The “blocking … by audiogenic seizures” value in data set [1] is “effective blocking agents of tonic convulsions”. The median lethal dose (LD50) at 24 h in data set [2] is 300 mg/kg. Further, the “blocking … by maximal electroshock” value in data set [3] is “effective blocking agents of tonic convulsions”. For the same compound, in [4], the effectiveness against pentylenetetrazole entry is recorded as “practically ineffective”.
In the case of `CNC(=O)[C@@H]1Oc2ccc(Cl)cc2[C@H](c2ccccc2)O1` (relative stereo) [BL-4093], in data set [9] (setting [13]), the ED100 is > 10 mg/kg.
For `CN(C)CCCNC(=O)[C@H]1Oc2ccc(Cl)cc2[C@H](c2ccccc2)O1.Cl` (relative stereo) [BL-4932A, trans-6-Chloro-4-phenyl-N-(3-dimethylaminopropyl)-1,3-benzodioxan-2-carboxamide hydrochloride], the “transient fall in aortic blood pressure” value in [8] (at 10 mg/kg (N=2)) amounted to 50 mmHg. This compound had a Transient reversion at in [9] (anesthetized dog, iv, transient reversion only (N=2)) of 10 mg/kg.
Turning to `CN(C)CCCNC(=O)[C@H]1Oc2ccc(Cl)cc2[C@@H](c2ccccc2)O1.Cl` (relative stereo) [BL-4971A, cis-6-Chloro-4-phenyl-N-(3-dimethylaminopropyl)1,3-benzodioxan-2-carboxamide hydrochloride], the “effect on aortic blood pressure” value in data set [8] is “No appreciable effect”. The ED100 in data set [9] (setting [13]) was 5 mg/kg.
For `CN(C)CCCNC(=O)[C@H]1Oc2ccccc2[C@@H](c2ccccc2)O1.Cl` (relative stereo) [BL-4981A, cis-4-Phenyl-N-(3-dimethylaminopropyl)-1,3-benzodioxan-2-carboxamide hydrochloride], the ED100 in [9] (setting [13]) was > 10 mg/kg.
For `CCN(CC)CCCN(c1ccccc1)C1Cc2ccccc2C1` [Aprindine, reference compound], the ED100 in data set [9] (setting [13]) amounted to 2.46 ± 0.83 mg/kg.
With `CN1C(=O)CN=C(c2ccccc2)c2cc(Cl)ccc21` [Diazepam, reference compound], the ED50 in [1] (Mus musculus) was 0.5 mg/kg; in data set [3] (Mus musculus), 6 mg/kg; in data set [6] (Rattus norvegicus) it was 10 mg/kg. For the same compound, in data set [7], the “antagonism of all the excitatory signs induced by pentylenetetrazol” value (“antagonism” below) was “able to antagonize all the excitatory signs”.
Take `O=C1NC(=O)C(c2ccccc2)(c2ccccc2)N1` [Diphenylhydantoin Na, reference compound]: the ED50 in [1] (setting [14]) was 10 mg/kg; in [3] (setting [10]), 10 mg/kg; in data set [4] it was > 50 mg/kg; in [5] it was 40 mg/kg; in [6] (setting [11]), 30 mg/kg; in data set [7] (setting [12]), 20 mg/kg.
`CC(C)N(CCC(C(N)=O)(c1ccccc1)c1ccccn1)C(C)C` (centres unmarked) [Disopyramide, reference compound]: the ED100 in data set [9] (setting [13]) amounted to 4.5 ± 1.3 mg/kg.
For `CCN(CC)CC(=O)Nc1c(C)cccc1C` [Lidocaine, reference compound], in data set [9] (iv), the ED100 was determined as 6.4 ± 1.4 mg/kg.
As for `CCC1(c2ccccc2)C(=O)NC(=O)NC1=O` [Phenobarbital Na, reference compound], the ED50 in [1] (Mus musculus) is 2.5 mg/kg; in data set [3] (Mus musculus) it was 10 mg/kg; in data set [4], 15 mg/kg; in [5] it was 20 mg/kg; in data set [6] (Rattus norvegicus), 8 mg/kg; in data set [7] (Mus musculus), 8 mg/kg. Also, in data set [2], the LD50 at 24 h was 265 mg/kg. Further, in data set [7], the “antagonism” value is given as “able to antagonize all the excitatory signs”.
Regarding `CN1C(=O)OC(C)(C)C1=O` [Trimethadione, reference compound], the ED50 in data set [1] (setting [14]) was 150 mg/kg; in data set [3] (setting [10]) it was > 400 mg/kg; in [4] it was 400 mg/kg; in data set [5], 100 mg/kg; in data set [6] (setting [11]), 300 mg/kg; in data set [7] (setting [12]), 200 mg/kg. Besides, in data set [2], the 50% lethal dose (LD50) at 24 h came out at 2170 mg/kg. Further, the “antagonism” value in data set [7] was “able to antagonize all the excitatory signs”.

For the origin of these results see patent publication US4056540A, “4-Phenyl-1,3-benzodioxans” (Bristol-Myers Company, priority 1975, dated 1977).
